Test results as given in patent publication US4032635A, “Pharmaceutical method for the therapy of immune diseases” (Zaidan Hojin Biseibutsu Kagaku Kenkyu Kai, priority 1975, dated 1977).
Where two headings read alike, the source gives them in different places. Where a SMILES comes first, the peptide text is derived from it. [ ]: non-standard residue; d: D form. The star is where a group is joined. Sta = CC(C)C[C@H](N)[C@@H](O)CC(=O)O; Isovaleryl = CC(C)CC(=O)*

Tests used:
[1] = system: primary antibody formation to sheep red blood cells (SRBC), spleen cells; assay: Suppression of primary antibody formation (plaque forming cells, Jerne's method); assay type: in vivo, mice (ddY-strain); details: for inhibition in vivo at 1 mg: Erythrocyte, ip, 96 h, read-out: Suppression, Plaque Forming Cells (suppression rate of primary antibody formation)
Procedure: 10^8 sheep red blood cells (SRBC) were injected intravenously into ddY-strain mice to immunize the animals, when the compounds of Formula (I) were administered intraperitoneally.
Each compound was administered intraperitoneally in the dosage of 1 mg./mouse.

[2] = system: Delayed-Type Hypersensitivity (DTH) to sheep red blood cells (SRBC); assay: Suppression of delayed-type hypersensitivity (SRBC footpad swelling); assay type: in vivo, mouse; details: for inhibition in vivo at 1 mg: Erythrocyte; for suppression of DTH reaction: anti-inflammatory drugs and protease-inhibitors, 1 mg./mouse
Procedure: The compounds of Formula (I) show suppression of various delayed-type hypersensitivity. In reference to the method by Lagrange [J. Exp. Med. 139, 528 (1974)], 10^8 sheep red blood cells (SRBC) without adjuvant were subcutaneously injected into the mouse hind footpad to immunize the animal. Four days later the animals were challenged by subcutaneous injection of 10^8 SRBC into another footpad. DTH response was measured as the increase in the thickness of footpad 24 hours after the injection of SRBC.
Varying doses of Compound-1 were administered orally or intraperitoneally either at the time of immunization (day 0) or challenge (day 4).
In FIG. 1 the ordinate indicates the swelling (× 0.1 mm.) of mice footpads on day 5 and the abscissa indicates the dose of Compound-1 per mouse administered by the oral (right) and intraperitoneal (left) routes. Solid line curve indicates the relationship when Compound-1 was administered on day 0 and the dotted line curve indicates the relationship when given on day 4.
The compounds were administered intraperitoneally in a dose 1 mg./mouse at the time of immunization (day 0) or challenge (day 4). Table 1 includes the results of humoral antibody response described later.

[3] = Acute toxicity, intraperitoneal; details: mouse, in vivo, ip, mice, read-out: LD50 (approximate)
Procedure: Acute toxicological studies were carried out on mice by intraperitoneal administration of the compounds of Formula (I). The approximate LD50 values for representative compounds are given as follows: […]

[4] = system: passive cutaneous anaphylaxis (PCA); assay: Suppression of passive cutaneous anaphylaxis (PCA); assay type: in vivo, guinea pigs; details: oral 100 mg./kg.; dilution giving a 10 mm. diameter blue zone; control 1060
Procedure: The compounds of Formula (I) are active in suppressing passive cutaneous anaphylaxis (PCA) in guinea pigs. Guinea pigs received intradarmally serial dilutions of antiserum (0.1 ml.), which was obtained from guinea pigs immunized with a mixture of egg albumin and Freund's complete adjuvant. At the time of sensitization with antiserum, the compound of Formula (I) was administered either orally (100 mg./kg.) or intraperitoneally (50 mg./kg.).
Four hours later the animals were challenged by intravenous injection of a mixture of 5 mg. egg albumin and Evans blue dye. The reaction was measured 30 minutes later by the blue zone which emerged at the point of antiserum injection.

[5] = system: carrageenin-induced edema; details: 1 mg./mouse; cited from earlier work
[6] = 96 h, 1 mg./mouse i.p., at challenge (day 4), read-out: Suppression, Delayed-Type Hypersensitivity, Administered at Induction (suppression rate)
[7] = ip, 0 h, 1 mg./mouse i.p., at immunization (day 0), read-out: Suppression, Delayed-Type Hypersensitivity, Administered at Immunization (suppression rate)

SMILES	inhibition in vivo at 1 mg ([1]; 1 mg./mouse i.p.) [%]	inhibition in vivo at 1 mg [2, 6] [%]	inhibition in vivo at 1 mg [2, 7] [%]	LD50 [3] [mg/kg]	further results
COc1c(Cl)cc(NC(=O)c2ccccc2O)cc1Cl [Compound 3]	50 to 75	> 75	0 to 25	–	–
CCC(=O)Oc1ccccc1C(=O)Nc1cc(Cl)c(OC(=O)CC)c(Cl)c1 [Compound 5]	50 to 75	> 75	0 to 25	–	–
O=C(Oc1ccccc1C(=O)Nc1cc(Cl)c(OC(=O)c2ccccc2)c(Cl)c1)c1ccccc1 [Compound 6]	> 75	> 75	0 to 25	2800	–
CC(=O)Oc1ccccc1C(=O)Nc1cc(Cl)cc(Cl)c1OC(C)=O [Compound 7]	50 to 75	> 75	0 to 25	> 3000	–
CC(=O)Oc1ccccc1C(=O)Nc1cc(Cl)c(O)c(Cl)c1 [Compound 8]	25 to 50	0 to 25	0 to 25	–	–
O=C(O)COc1c(Cl)cc(NC(=O)c2ccccc2O)cc1Cl [Compound 9]	0 to 25	> 75	0 to 25	–	–
O=C(Nc1cc(Cl)c(O)c(Cl)c1)c1ccc(F)cc1O [Compound 10]	25 to 50	> 75	0 to 25	–	–
Cc1ccc(C(=O)Nc2cc(Cl)c(O)c(Cl)c2)c(O)c1 [Compound 11]	25 to 50	0 to 25	> 75	–	–
O=C(Nc1cc(Br)cc(Br)c1O)c1ccccc1O [Compound 13]	0 to 25	50 to 75	50 to 75	1280	–
CCOc1c(Br)cc(NC(=O)c2ccccc2O)cc1Br [Compound 14]	0 to 25	> 75	50 to 75	–	–
CCC(=O)Oc1ccccc1C(=O)Nc1cc(Br)cc(Br)c1OC(=O)CC [Compound 15]	0 to 25	50 to 75	50 to 75	2200	–
Cc1ccc(C(=O)Nc2cc(Br)c(O)c(Br)c2)c(O)c1 [Compound 16]	0 to 25	> 75	50 to 75	–	–
O=C(Nc1cc(F)c(O)c(Cl)c1)c1ccccc1O [Compound 17]	> 75	> 75	0 to 25	–	–
COc1c(F)cc(NC(=O)c2ccc(Cl)cc2O)cc1Cl [Compound 18]	25 to 50	> 75	0 to 25	–	–
Cc1cc(Cl)cc(NC(=O)c2ccccc2O)c1O [Compound 19]	25 to 50	25 to 50	0 to 25	1800	–
Cc1cc(Cl)c(O)c(NC(=O)c2ccccc2O)c1 [Compound 20]	50 to 75	> 75	0 to 25	–	–
O=C(Nc1cc([N+](=O)[O-])cc([N+](=O)[O-])c1O)c1ccccc1O [Compound 21]	–	–	–	–	inhibition in vivo at 1 mg ([1]; Mus musculus): 0 to 25%; inhibition in vivo at 1 mg ([2]; Mus musculus, 96 h, read-out: Suppression, Delayed-Type Hypersensitivity, Administered at Induction (suppression rate)): > 75%; inhibition in vivo at 1 mg ([2]; Mus musculus, ip, 0 h, read-out: Suppression, Delayed-Type Hypersensitivity, Administered at Immunization (suppression rate)): 50 to 75%

SMILES	inhibition in vivo at 1 mg ([1]; 1 mg./mouse i.p.) [%]	inhibition in vivo at 1 mg [2, 6] [%]	inhibition in vivo at 1 mg [2, 7] [%]	LD50 [3] [mg/kg]	further results
O=C(Nc1ccc(O)c(Cl)c1)c1ccccc1O [Compound 22]	> 75	0 to 25	0 to 25	–	–
O=C(Nc1cccc(Cl)c1O)c1ccccc1O [Compound 23]	50 to 75	0 to 25	0 to 25	1550	–
CCOc1ccc(NC(=O)c2ccc(F)cc2O)cc1Cl [Compound 24]	25 to 50	50 to 75	0 to 25	–	–
CC(=O)Oc1ccccc1C(=O)Nc1cccc(Cl)c1OC(C)=O [Compound 25]	50 to 75	25 to 50	0 to 25	2500	–
O=C(Nc1ccc(O)cc1)c1ccccc1O [Compound 26]	50 to 75	50 to 75	0 to 25	–	–
COc1ccc(NC(=O)c2ccc(F)cc2O)cc1 [Compound 28]	> 75	> 75	0 to 25	2800	–
CCOc1ccc(NC(=O)c2ccc(F)cc2O)cc1 [Compound 31]	50 to 75	> 75	0 to 25	–	–
COc1ccc(NC(=O)c2ccc(C)cc2OC(C)=O)cc1 [Compound 32]	–	–	–	–	Suppression, Plaque Forming Cells (suppression rate of primary antibody formation) ([1]; 1 mg./mouse i.p.): - (0 - 25% +-); Suppression, Delayed-Type Hypersensitivity, Administered at Induction (suppression rate) ([2]; 1 mg./mouse i.p., at challenge (day 4)): + (25 - 50%+-); Suppression, Delayed-Type Hypersensitivity, Administered at Immunization (suppression rate) ([2]; 1 mg./mouse i.p., at immunization (day 0)): - (0 - 25% +-)
CC(=O)Oc1ccccc1C(=O)Nc1cc(Cl)c(OC(C)=O)c(Cl)c1 [Compound-4, 2,4'-Diacetoxy-3',5'-dichlorobenzanilide]	50 to 75	> 75	0 to 25	–	–
O=C(Nc1cc(Br)c(O)c(Br)c1)c1ccccc1O [Compound-12, 3',5'-Dibromo-2,4'-dihydroxybenzanilide]	0 to 25	50 to 75	> 75	1100	Max. Dilution of Antiserum, Oral [4]: 548
COc1ccc(NC(=O)c2ccccc2O)cc1 [Compound-27, 2-Hydroxy-4'-methoxybenzanilide]	> 75	> 75	0 to 25	> 3000	Max. Dilution of Antiserum, Oral [4]: 284
COc1ccc(NC(=O)c2ccc(C)cc2O)cc1 [Compound-29, 2-Hydroxy-4-methyl-4'-methoxybenzanilide]	25 to 50	> 75	0 to 25	2500	–
CC(=O)Oc1ccccc1C(=O)O [aspirin, reference compound]	–	–	–	–	suppression of carrageenin-induced edema [5]: strongly suppress carrageenin-induced edema; suppression of DTH reaction [2]: little suppression of this DTH reaction
CC(C)C[C@H](NC(=O)[C@@H](NC(=O)N[C@@H](Cc1ccccc1)C(=O)O)[C@@H]1CCN=C(N)N1)C(=O)N[C@H](C=O)Cc1ccccc1 [chymostatin, reference compound]	–	–	–	–	suppression of carrageenin-induced edema [5]: strongly suppress carrageenin-induced edema; suppression of DTH reaction [2]: little suppression of this DTH reaction
CC(=O)N[C@@H](CC(C)C)C(=O)N[C@@H](CC(C)C)C(=O)N[C@H](C=O)CCCNC(=N)N [leupeptin, reference compound]	–	–	–	–	suppression of carrageenin-induced edema [5]: strongly suppress carrageenin-induced edema; suppression of DTH reaction [2]: little suppression of this DTH reaction
CC(C)CC(=O)N[C@H](C(=O)N[C@H](C(=O)N[C@@H](CC(C)C)[C@@H](O)CC(=O)N[C@@H](C)C(=O)N[C@@H](CC(C)C)[C@@H](O)CC(=O)O)C(C)C)C(C)C [pepstatin, reference compound] (Isovaleryl-VV[Sta]A[Sta]-OH)	–	–	–	–	suppression of carrageenin-induced edema [5]: strongly suppress carrageenin-induced edema; suppression of DTH reaction [2]: little suppression of this DTH reaction
